Laboratory results as given in patent US20250082577A1, “POLYMER BEADLET COMPOSITIONS AND METHODS OF USE THEREOF FOR IMPROVED STABILITY, BIOAVAILABILITY & SUSTAINED RELEASE” (SpecNova LLC, priority 2023, published 2025).

How the values were obtained:
[1] = cited from earlier work
[2] = whole-body creatine retention from 24-hour urine, double-blind randomized crossover study; conditions: 2 x 5 g oral, 8 hours apart (total 10 grams), fifteen females and males
Experimental: Participants adhered to a plant-based protein diet prior to each testing session. […] Participants were then randomly assigned to ingest capsules containing 5 g of CrM or 5 g of CrM prepared in beadlets (CrM-Bead). […] Participants repeated the experiment after a seven-day washout while ingesting the crossover supplement, i.e. the CrM-Bead group was given CrM and the CrM group was given Crm-Beads. Whole-body creatine retention was determined by subtracting CrM intake from the difference between post-supplementation urine creatine content and expressed in percent retention.

CN(CC(=O)O)C(=N)N.O [CrM, creatine monohydrate]
time to return to baseline in the blood after oral ingestion [1]: 4 to 5 h
24-hour whole-body creatine retention [2]: 81.8%±11.4%
